Measured values reported in patent US9994555B2, “Chromenone inhibitors of monocarboxylate transporters” (THE SCRIPPS RESEARCH INSTITUTE, priority 2015, dated 2018).

System: Raji (Burkitt's) lymphoma cells
Experiment: MTT assay for 4-day viability of Raji (Burkitt's) lymphoma cells
Type: cell-based
Conditions: Homo sapiens, 96 h, Raji (Burkitt's) lymphoma cells highly expressing MCT1, estimated EC50 given as bin, read-out: approximate potency (EC50)
Source text: Specific Examples of compounds of the invention, with estimated EC50 values determined using an MTT assay for 4-day viability of Raji (Burkitt's) lymphoma cells, a cell line known to highly express MCT1 and to be sensitive to small molecule MCT inhibitors,^4 are shown in Table 8. Assay protocols follow those described in the literature.^4 Other assays that are not described here but that are standard in the field, such as an assay for competitive inhibition of transport of radiolabeled lactic acid, an MCT substrate, may also be useful in establishing mechanism of action of these compounds.

EC50 [µM]	SMILES
≥ 10	CC(C)c1cc(=O)c2c(-c3cccc(CO)c3F)cc(OCc3cccc4ccccc34)cc2o1 [Example 41, 5-(2-fluoro-3-(hydroxymethyl)phenyl)-2-isopropyl-7-(naphthalen-1-ylmethoxy)-4H-chromen-4-one]
0.1 to 1	CC(C)c1cc(=O)c2c(-c3cccc(CO)c3)cc(Oc3ccnc4ccccc34)cc2o1 [Example 42, 5-(3-(hydroxymethyl)phenyl)-2-isopropyl-7-(quinolin-4-yloxy)-4H-chromen-4-one]
0.1 to 1	CC(C)c1cc(=O)c2c(-c3cccc(CO)c3)cc(OCc3cccc4ccccc34)cc2o1 [Example 43, 5-(3-(hydroxymethyl)phenyl)-2-isopropyl-7-(naphthalen-1-ylmethoxy)-4H-chromen-4-one]
≥ 10	CC(C)c1cc(=O)c2c(-c3ccccc3CO)cc(OCc3cccc4ccccc34)cc2o1 [Example 44]
1 to 10	CC(C)c1cc(=O)c2c(-c3ccc(CO)cc3)cc(OCc3cccc4ccccc34)cc2o1 [Example 45]
1 to 10	CC(C)c1cc(=O)c2c(NCCCCO)cc(OCc3cccc4ccccc34)cc2o1 [Example 46, 5-((4-hydroxybutyl)amino)-2-isopropyl-7-(naphthalen-1-ylmethoxy)-4H-chromen-4-one]
≥ 10	CC(C)c1cc(=O)c2c(NCCCCCO)cc(OCc3cccc4ccccc34)cc2o1 [Example 47, 5-((5-hydroxypentyl)amino)-2-isopropyl-7-(naphthalen-1-ylmethoxy)-4H-chromen-4-one]
1 to 10	CC(C)c1cc(=O)c2c(NCCCO)cc(OCc3cccc4ccccc34)cc2o1 [Example 48, 5-((3-hydroxypropyl)amino)-2-isopropyl-7-(naphthalen-1-ylmethoxy)-4H-chromen-4-one]
≥ 10	CC(C)c1cc(=O)c2c(Nc3cccc(CO)c3)cc(OCc3cccc4ccccc34)cc2o1 [Example 49, 5-((3-(hydroxymethyl)phenyl)amino)-2-isopropyl-7-(naphthalen-1-ylmethoxy)-4H-chromen-4-one]
1 to 10	CC(C)c1cc(=O)c2c(N3CCC(CO)CC3)cc(OCc3cccc4ccccc34)cc2o1 [Example 50, 5-(4-(hydroxymethyl)piperidin-1-yl)-2-isopropyl-7-(naphthalen-1-ylmethoxy)-4H-chromen-4-one]
